PMC6265301, “Engineering Saccharomyces cerevisiae for co-utilization of D-galacturonic acid and D-glucose from citrus peel waste” (Nature Communications, 2018)

Assays:
GAR1 = target: T1, GAR1 (Trichoderma reesei, UniProt Q3ZFI7); experiment: reductase activity in yeast lysate; type: biochemical
T1 construct: codon-optimized, expressed in S. cerevisiae BY4741, lysate
T1 sequence (Q3ZFI7 1-309): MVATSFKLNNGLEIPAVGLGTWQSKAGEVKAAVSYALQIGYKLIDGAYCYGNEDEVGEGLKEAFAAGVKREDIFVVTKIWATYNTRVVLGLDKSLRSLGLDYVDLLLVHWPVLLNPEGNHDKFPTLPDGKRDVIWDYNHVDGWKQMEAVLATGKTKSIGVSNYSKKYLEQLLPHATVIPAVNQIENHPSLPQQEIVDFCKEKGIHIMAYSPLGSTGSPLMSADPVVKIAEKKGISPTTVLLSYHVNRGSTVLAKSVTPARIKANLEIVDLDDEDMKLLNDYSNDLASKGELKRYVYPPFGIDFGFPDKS

GAAA = target: T2, GAAA (Aspergillus niger, UniProt A8DRH9); experiment: reductase activity in yeast lysate; type: biochemical
T2 construct: codon-optimized, expressed in S. cerevisiae BY4741, lysate
T2 sequence (A8DRH9 1-412): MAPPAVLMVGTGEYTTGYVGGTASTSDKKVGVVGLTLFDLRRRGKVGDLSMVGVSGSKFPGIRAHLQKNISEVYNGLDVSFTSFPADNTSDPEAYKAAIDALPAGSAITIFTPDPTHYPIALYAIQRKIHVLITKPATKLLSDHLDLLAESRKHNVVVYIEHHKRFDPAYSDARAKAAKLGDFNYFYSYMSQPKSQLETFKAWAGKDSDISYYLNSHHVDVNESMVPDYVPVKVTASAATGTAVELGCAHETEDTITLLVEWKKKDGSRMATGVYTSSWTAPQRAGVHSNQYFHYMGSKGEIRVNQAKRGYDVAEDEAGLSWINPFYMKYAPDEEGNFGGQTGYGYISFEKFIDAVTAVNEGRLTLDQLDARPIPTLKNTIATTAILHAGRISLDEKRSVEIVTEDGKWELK

[1] = target: T3, uronate dehydrogenase (UDH) (Pseudomonas syringae group genomosp. 3, UniProt Q888H1); experiment: conversion to meso-galactaric acid by UDH-expressing yeast, HPLC; type: cell-based; conditions: orange peel hydrolysate, GatA co-expressed
T3 construct: genomically integrated, expressed in S. cerevisiae with GatA
T3 sequence (Q888H1 1-275): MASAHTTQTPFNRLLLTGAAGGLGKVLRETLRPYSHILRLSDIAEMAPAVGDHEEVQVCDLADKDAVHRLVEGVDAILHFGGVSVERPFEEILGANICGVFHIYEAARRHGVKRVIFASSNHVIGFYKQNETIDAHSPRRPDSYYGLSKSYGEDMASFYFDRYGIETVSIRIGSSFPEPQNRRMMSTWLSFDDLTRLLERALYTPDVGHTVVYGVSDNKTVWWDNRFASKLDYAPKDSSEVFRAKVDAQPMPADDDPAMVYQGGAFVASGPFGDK

GAAC = target: T4, GAAC (Aspergillus niger, UniProt A8DRH7); experiment: aldolase activity in yeast lysate; type: biochemical
T4 construct: codon-optimized, expressed in S. cerevisiae BY4741, lysate
T4 sequence (A8DRH7 1-335): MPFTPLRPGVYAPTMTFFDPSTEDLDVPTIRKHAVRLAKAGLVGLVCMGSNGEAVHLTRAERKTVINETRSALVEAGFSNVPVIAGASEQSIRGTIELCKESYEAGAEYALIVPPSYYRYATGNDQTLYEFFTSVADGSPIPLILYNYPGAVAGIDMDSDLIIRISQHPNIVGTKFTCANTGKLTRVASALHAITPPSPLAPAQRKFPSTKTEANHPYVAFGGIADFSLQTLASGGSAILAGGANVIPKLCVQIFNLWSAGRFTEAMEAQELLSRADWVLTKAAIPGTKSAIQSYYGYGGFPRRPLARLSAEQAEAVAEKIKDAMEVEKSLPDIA

Compound	reductase activity in yeast lysate (GAR1)	reductase activity in yeast lysate (GAAA)	conversion to meso-galactaric acid by UDH-expressing yeast, HPLC [1]	aldolase activity in yeast lysate (GAAC)
O=C(O)[C@H]1OC(O)[C@H](O)[C@@H](O)[C@H]1O (stereo partly drawn) [D-galUA]	D-galacturonate reductase from Trichoderma reesei (GAR1)	lower specific activities measured for GAAA compared to GAR1 in cell lysate	conversion of D-galUA to meso-galactaric acid was observed in the UDH and GatA co-expression strain	
O=C(O)C(=O)C[C@H](O)[C@@H](O)CO [2-keto-3-deoxy-L-galactonate]				2-keto-3-deoxy-L-galactonate aldolase from Aspergillus niger (GAAC)
